For the assay, the target named is T1, rFhGST-S1 (recombinant Fasciola hepatica Sigma class glutathione transferase) (Fasciola hepatica, UniProt Q06A71).
T1 sequence (Q06A71 1-211): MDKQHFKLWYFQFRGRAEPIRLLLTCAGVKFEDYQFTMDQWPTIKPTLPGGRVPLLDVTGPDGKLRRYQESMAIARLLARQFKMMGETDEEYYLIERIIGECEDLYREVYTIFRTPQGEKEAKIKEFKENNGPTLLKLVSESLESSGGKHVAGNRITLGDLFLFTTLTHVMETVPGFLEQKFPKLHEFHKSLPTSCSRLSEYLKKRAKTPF
Kind of assay: inhibition of GSH-CDNB conjugation, spectrophotometric, graphical IC50. The format is biochemical.
As for `C[C@H](CCC(=O)O)[C@H]1CC[C@H]2[C@@H]3[C@H](O)C[C@@H]4C[C@H](O)CC[C@]4(C)[C@H]3C[C@H](O)[C@]12C` [Cholic acid], the 50% inhibitory concentration (IC50) was 302 ± 73 µM.

Regarding `C[S+]([O-])c1nc2cc(Cl)c(Oc3cccc(Cl)c3Cl)cc2[nH]1` (stereo not shown) [TCBZ SO, sulphoxide derivative of Triclabendazole], the IC50 was determined as 57 ± 5 µM.

Regarding `C[C@H](CCC(=O)O)[C@H]1CC[C@H]2[C@@H]3[C@H](O)C[C@@H]4C[C@H](O)CC[C@]4(C)[C@H]3CC[C@]12C` [Chenodeoxycholic acid], the IC50 was 64 ± 9 µM.

On to `C[C@H](CCC(=O)O)[C@H]1CC[C@H]2[C@@H]3CC[C@@H]4C[C@H](O)CC[C@]4(C)[C@H]3C[C@H](O)[C@]12C` [Deoxycholic acid], for which the IC50 worked out at 223 ± 21 µM.
